# Data: patent US20180289840A1, “Method for Evaluating Hematological Toxicity of Drug Under Evaluation, and Model for Evaluating Hematological Toxicity of Drug Under Evaluation” (Central Institute for Experimental Animals, priority 2015, published 2018)
# Where two headings read alike, the source gives them in different places.
# How the values were obtained:
# [1] = system: human CD45+ cells (granulocytes-based progenitor cells); assay: Colony forming test on granulocytes-based myelopoiesis progenitor cells, human CD45+ bone marrow cells of humanized Tg-NOG mouse; assay type: cell-based; details: for influence on the granulocytes-based progenitor cells in the bone marrow, human vs mouse: colony forming test, comparison hCD45+ vs mCD45+; for IC50: concentration at which formation of 50% of granulocyte-derived colonies is inhibited, read-out: IC50 (nM) hCD45+; for IC50 / IC90: cultured 16 days; for IC90: concentration at which formation of 90% of granulocyte-derived colonies is inhibited, read-out: IC90 (nM) hCD45+
# Source text: (§1) The mouse at week 14 after the transplantation of the hCD34^+ cells derived from the human cord blood was euthanized by removing the blood from the abdominal aorta under anesthesia of isoflurane. Then, the femur was collected. The femur was sterilely washed using the Iscove's Modified Dulbecco's Medium (IMDM, available from Life Technologies) to prepare a suspension of cells. The suspension of cells was passed through a nylon filter (pore size of 35 μm, Cell Strainer, available from BD Biosciences) to obtain a filtrate as a solution of the bone marrow cells. A portion of the solution of the bone marrow cells was subjected to FACS analysis to calculate a ratio between the human-derived leucocytes (hCD45^+) and the mouse-derived leucocytes (mCD45^+).
# The human 45^+ cells were suspended in a methyl cellulose medium (MethoCult H4534, available from Stem cell technologies) so as to be 5×10^4 cells/1.1 mL/dish. Then, EHC was added at 0.14 nM, 0.4 nM, 1.2 nM, 3.7 nM, 11 nM, or 33 nM. Meanwhile, PTX was added at 0.12 nM, 0.4 nM, 1.1 nM, 3.3 nM, 10 nM, 30 nM, or 90 nM. The resultant was seeded in a dish and was cultured for 16 days at 37° C. under 5% CO2.
# (§2) As the vehicle control, dimethyl sulfoxide (DMSO, final concentration of 0.002 v/v %) was used. For each concentration, two dishes were used.
# (§3) After a period of the cultivation was completed, the number of the colonies derived from the granulocytes formed was counted and an average number of the colonies in each concentration was calculated. An average number of the colonies in the vehicle control was considered as 100%. The average number of the colonies in each concentration was considered as a relative value (IC50 and IC90). Here, the IC50 means a concentration at which formation of 50% of the colonies is inhibited and the IC90 means a concentration at which formation of 90% of the colonies is inhibited.
# (§4) The collection, preparation, and cultivation of the bone marrow cells and the calculation of the percentage of inhibition of colony formation were performed in the same manner as in Example 3-1.
# The human CD45^+ cells were exposed to nogitecan at an exposure concentration of 0.41 nM, 1.2 nM, 3.7 nM, 11.1 nM, 33.3 nM, or 100 nM. Meanwhile, the other human CD45^+ cells were exposed to oxaliplatin at an exposure concentration of 123 nM, 370 nM, 1,111 nM, 3,333 nM, 10,000 nM, or 30,000 nM.
# (§5) A physiological saline solution was used for the vehicle control of nogitecan and a distilled water was used for the vehicle control of oxaliplatin.
# (§6) An average number of the colonies in the vehicle control was considered as 100%. The average number of the colonies in each concentration was considered as a relative value (IC50 and IC90). Here, the IC50 means a concentration at which formation of 50% of the colonies is inhibited and the IC90 means a concentration at which formation of 90% of the colonies is inhibited.
# [2] = system: mouse CD45+ cells (granulocytes-based progenitor cells); assay: Colony forming test on granulocytes-based myelopoiesis progenitor cells, mouse CD45+ bone marrow cells of humanized Tg-NOG mouse; assay type: cell-based; details: cultured 8 days; for IC50: concentration at which formation of 50% of granulocyte-derived colonies is inhibited, read-out: IC50 (nM) mCD45+; for IC90: concentration at which formation of 90% of granulocyte-derived colonies is inhibited, read-out: IC90 (nM) mCD45+
# Source text: as §1
# The mouse CD45^+ cells were suspended in a methyl cellulose medium (available from MethoCult GF M3534, Stem cell technologies) so as to be 2×10^4 cells/1.1 mL/dish. Then, EHC (1.2 nM, 3.7 nM, 11 nM, 33 nM, 100 nM, or 300 nM) was added. Meanwhile, PTX (0.12 nM, 0.4 nM, 1.1 nM, 3.3 nM, 10 nM, 30 nM, or 90 nM) was added. The resultant was seeded in a dish and was cultured for 8 days at 37° C. under 5% CO2.
# as §2, §3, §4
# The mouse CD45^+ cells were exposed to nogitecan at an exposure concentration of 3.7 nM, 11.1 nM, 33.3 nM, 100 nM, 300 nM, or 900 nM. Meanwhile, the other mouse CD45^+ cells were exposed to oxaliplatin at an exposure concentration of 13.7 nM, 41.2 nM, 123 nM, 370 nM, or 1,111 nM.
# as §5, §6
# [3] = system: human-derived leucocytes (hCD45+) and human-derived granulocytes (hCD66b+); assay type: in vivo; details: oxaliplatin 20 mg/kg single intravenous
# Description: (§7) Six-week-old Tg-NOG mice (24 females) were irradiated with X-rays of 2.5 Gy. After a period of from 3 hours to 4 hours, the CD34^+ cells derived from the human cord blood were transplanted at 40,000 cells/body. At 5 week after the transplantation, the peripheral blood was collected from the orbital sinus under anesthesia of isoflurane. Engraftment thereof in the peripheral blood was confirmed.
# (§8) Eleven mice suitable for the evaluation were selected and divided into the control group (5 mice) and the oxaliplatin administration group (6 mice). The mice in the control group received a 5 w/v % glucose solution from the tail vein through single intravenous administration. Meanwhile, two mice of the 6 mice in the oxaliplatin administration group received oxaliplatin at 20 mg/kg (2 mg/mL, 10 mL/kg), another two mice in the oxaliplatin administration group received oxaliplatin at 30 mg/kg (3 mg/mL, 10 mL/kg), and the other two mice in the oxaliplatin administration group received oxaliplatin at 40 mg/kg (4 mg/mL, 10 mL/kg) from the tail vein through single intravenous administration. Regarding assignment of the animals, the animals were grouped so that an average value of the number of the human leucocytes and that of the number of the human granulocytes were almost the same.
# (§9) The peripheral blood was collected from the orbital sinus under anesthesia of isoflurane at day 4, day 7, day 14, day 17, day 21, and day 28 after the administration. Then, the number of the leucocytes in the peripheral blood was measured with FACS. The animals administered at 30 mg/kg and the animals administered at 40 mg/kg died by day 7 after the administration.
# [4] = system: mouse-derived leucocytes (mCD45+) and mouse-derived granulocytes (mGr-1+); assay type: in vivo; details: oxaliplatin 20 mg/kg single intravenous
# Description: as §7, §8, §9
# Tg-NOG mouse = assay: Survival and general condition of humanized Tg-NOG mice after single intravenous administration; assay type: in vivo
# Description: as §7, §8, §9
# [5] = Homo sapiens, Bone marrow cell, 384 h
# [6] = Mus musculus, Bone marrow cell, 192 h
"IC50 [1, 5] [nM]","IC90 [1, 5] [nM]","IC50 [2, 6] [nM]","IC90 [2, 6] [nM]",SMILES,"influence on the granulocytes-based progenitor cells in the bone marrow, human vs mouse [1]",IC50 [1] [nM],IC90 [1] [nM],IC50 [2] [nM],IC90 [2] [nM],change of human leucocytes in peripheral blood [3],day from which tendency of recovering of human-derived granulocytes was presented [3] [days],change of human-derived granulocytes ([3]; day 4 after the administration),difference between species: influence on the reduction in the leucocytes ([3]; human vs mouse leucocytes),change of mouse-derived leucocytes (mCD45+) and mouse-derived granulocytes (mGr-1+) [4],"general condition of animals (Tg-NOG mouse; oxaliplatin 20 mg/kg single intravenous, day 17 after the administration)","death of animals, day after the administration (Tg-NOG mouse; oxaliplatin 30 mg/kg single intravenous) [days]","death of animals, day after the administration (Tg-NOG mouse; oxaliplatin 40 mg/kg single intravenous) [days]"
,,,,"CCc1c2c(nc3ccc(O)cc13)-c1cc3c(c(=O)n1C2)COC(=O)[C@]3(O)CC [EHC, 7-Ethyl-10-hydroxycamptothecin]",higher in the human than in the mouse,11.3,12.9,106,122,,,,,,,,
8.7,24.3,142,305,"CC[C@@]1(O)C(=O)OCc2c1cc1n(c2=O)Cc2cc3c(CN(C)C)c(O)ccc3nc2-1 [Nogitecan, nogitecan]",higher in the human than in the mouse,,,,,,,,,,,,
,,,,"O=C1[O][Pt]2([NH][C@@H]3CCCC[C@H]3[NH]2)[O]C1=O [Oxaliplatin, oxaliplatin]",higher in the mouse than in the human,2770,4660,434,846,no considerable reduction,≥ 7,slightly decreased,more strongly developed in the human than in the mouse,considerably decreased,moribund condition,≤ 7,≤ 7
83.9,84.5,71.2,87.5,"CC(=O)O[C@H]1C(=O)[C@@]2(C)[C@H]([C@H](OC(=O)c3ccccc3)[C@]3(O)C[C@H](OC(=O)[C@H](O)[C@@H](NC(=O)c4ccccc4)c4ccccc4)C(C)=C1C3(C)C)[C@]1(OC(C)=O)CO[C@@H]1C[C@@H]2O [PTX, paclitaxel]",almost the same between the human and the mouse,,,,,,,,,,,,
